Data set [1] concerns metabolically active cells. The experiment in a line: Cell viability luminescence assay. The format is cell-based. Particulars: 24 hours incubation. Here is the method: Compound toxicity was measured in a luminescence assay that gives a signal proportional to the amount of metabolically active cells in the sample; the assay was performed as described by the supplier. All synthesized compounds were tested in the viability assay, and viability was registered at 24 hours and 72 hours.

Data set [2] concerns PLB-Ser^16 phosphorylation. Put plainly: PLB-Ser16 phosphorylation in isoproterenol-stimulated rat neonatal cardiomyocytes (western blot). The format is cell-based. The conditions noted are these: for Effect on PLB phosphorylation in cardiomyocytes / effect on PLB phosphorylation: rat neonatal cardiomyocytes; for Effect on PLB phosphorylation in cardiomyocytes: compounds 24 hours prior isoproterenol (100 nM, 5 minutes); for effect on PLB phosphorylation: Example 53. How it is done:
FIG. 7: Disruption of the AKAP18δ-PLB complex influences PLB-Ser^16 phosphorylation. Rat neonatal cardiomyocytes treated with compounds 24 hours prior stimulation with isoproterenol (100 nM, 5 minutes).
FIG. 9: Disruption of the AKAP18δ-PLB complex influences PLB-Ser^16 phosphorylation. Rat neonatal cardiomyocytes treated with compound 2g (A) or 3d (C) 24 hours prior stimulation with isoproterenol (100 nM, 5 minutes). Rat adult cardiomyocytes treated with compound 2g (B) 1 hour prior to stimulation with isoproterenol (10 nM, 5 minutes). The histograms show levels of phosphorylated Ser^16-PLB quantified by densitometry on Western blots (relative to actin levels).
Based on data from studies in cardiomyocytes assay using a peptide that blocks AKAP18δ-PLB interaction, it was expected that effective compounds would also cause disruption of the AKAP18δ-PLB complex and decrease PLB-Ser^16 phosphorylation (Lygren et al. in EMBO Reports, volume 8, issue 11, page 1061-1067 (2007). A small selection of hits from the derivatized compounds were tested in this cell-based assay, performed as described in Lygren et al.
Briefly, compounds were added to primary cultures of rat neonatal cardiomyocytes were added compounds about 24 hour prior stimulation with isoproterenol, and amount of phosphorylated Ser^16-PLB was analyzed by western blotting using a pSer^16-PLB phosphospecific antibody. Actin was used as a loading control.
Rat neonatal cardiomyocytes treated with compounds 24 hours prior stimulation with isoproterenol (100 nM, 5 minutes).

Data set [3] is described as follows: Aqueous solubility of free bases and various salts by dissolution at room temperature. The format is physicochemical. The conditions noted are these: water, thermodynamic from solid. Here is the method: The aqueous solubility of various amine compounds and their corresponding salts were determined by dissolution of various amounts of the respective compounds at room temperature.

Data set [4] in a line: Aqueous solubility of tribenzylamine and salts quantified by HPLC (AUC). Type of data set: physicochemical. The conditions noted are these: HPLC area under curve. Here is the method:
Tribenzylamine and the corresponding salts were dissolved in water and the solubility was quantified (area under curve (AUC)) by HPLC
Solubility of Tribenzylamine and its Corresponding HCl and Mesylate Salts, Tested on HPLC.

Where [5] appears, read: 24 hours prior isoproterenol (100 nM, 5 minutes).
[6] abbreviates: HCl salt, read-out: Solubility HCl salt.
[7] abbreviates: free base, read-out: Solubility free base.
Setting [8] is: mesylate salt, read-out: Solubility Mesylate salt.

The structures appear in SMILES notation. Read-outs that look alike come from different tables or passages of the source. Bounds are passed on as bounds.

Consider `Fc1ccc(CN(Cc2ccncc2)Cc2ccc(F)cc2)cc1` [Compound 2a, N,N-bis(4-fluorobenzyl)-1-(pyridin-4-yl)methanamine], for which, in data set [1], the “Viability (100 μM) 24 hours” value was 0.85.

Regarding `Oc1ccc(O)c(CN(Cc2ccncc2)Cc2cc(O)ccc2O)c1` [Compound 2b, 2,2′-(((pyridin-4-ylmethyl)azanediyl)bis(methylene))bis(benzene-1,4-diol)], the “Viability (100 μM) 24 hours” value in data set [1] came out at 0.10. Further, the “Effect on PLB phosphorylation in cardiomyocytes” value (shortened to “Effect … in cardiomyocytes”) in data set [2] is “−”.

Turning to `Fc1ccc(CN(Cc2ccc(F)cc2)Cc2nccs2)cc1` [Compound 2c, N,N-bis(4-fluorobenzyl)-1-(thiazol-2-yl)methanamine], the “Viability (100 μM) 24 hours” value in data set [1] is 1.11.

Regarding `COc1ccc(CN(Cc2ccc(OC)cc2)Cc2nccs2)cc1` [Compound 2d, N,N-bis(4-methoxybenzyl)-1-(thiazol-2-yl)methanamine], in data set [1], the “Viability (100 μM) 24 hours” value turned out to be 1.15.

For the compound `COc1ccc(CN(Cc2ccccc2)Cc2ccc(OC)cc2)cc1` [Compound 2e, N-benzyl-N-(4-methoxybenzyl)-1-(4-methoxyphenyl)methanamine], the “Viability (100 μM) 24 hours” value in data set [1] was determined as 1.01.

Consider `COC(=O)c1ccc(CN(Cc2ccccc2)Cc2ccc(C(=O)OC)cc2)cc1` [Compound 2f, dimethyl 4,4′-((benzylazanediyl)bis(methylene))dibenzoate], for which the “Viability (100 μM) 24 hours” value in data set [1] amounted to 0.92.

For the compound `CC(c1ccccc1)N(Cc1ccc(N(C)C)cc1)Cc1ccc(N(C)C)cc1` (stereo not shown) [Compound 2h, 4-(((4-(dimethylamino)benzyl)(1-phenylethyl)amino)methyl)-N,N-dimethylaniline], the “Viability (100 μM) 24 hours” value in data set [1] is listed as 0.91.

For `CC(C)(C)c1ccc(CN(Cc2ccncc2)Cc2ccc(F)cc2)cc1` [Compound 3a, N-(4-(tert-butyl)benzyl)-N-(4-fluorobenzyl)-1-(pyridin-4-yl)methanamine], the “Viability (100 μM) 24 hours” value in data set [1] was 0.79.

Consider `Oc1ccc(O)c(CN(Cc2ccncc2)Cc2ccc(F)cc2)c1` [Compound 3b, 2-(((4-fluorobenzyl)(pyridin-4-ylmethyl)amino)methyl)benzene-1,4-diol], for which the “Viability (100 μM) 24 hours” value in data set [1] stood at 0.03.

Turning to `CN(C)c1ccc(CN(Cc2ccccc2)CC(c2ccccc2)c2ccccc2)cc1` [Compound 3c, 4-((benzyl(2,2-diphenylethyl)amino)methyl)-N,N-dimethylaniline], the “Viability (100 μM) 24 hours” value in data set [1] was determined as 0.74. Besides, in data set [2] (setting [5]), the “effect on PLB phosphorylation” value is reported as “somewhat weaker than that of 2g”. The “Effect … in cardiomyocytes” value in data set [2] was “+”.

For the compound `CN(C)c1ccc(CN(Cc2ccccc2)Cc2ccc3c(c2)CCO3)cc1` [Compound 3d], the “Viability (100 μM) 24 hours” value in data set [1] came to 0.58. For the same compound, the IC50 in data set [2] (Rattus norvegicus, Cardiomyocyte, neonatal cardiomyocytes, 24 hours prior isoproterenol (100 nM, 5 minutes), read-out: half-maximal effect, inhibition of phospholamban phosphorylation) is about 100 µM. Besides, the “effect on PLB phosphorylation” value in data set [2] (setting [5]) was “did not appear to have an effect”. For the same compound, in data set [2], the “Effect … in cardiomyocytes” value is “−”.

On to `COC(=O)c1ccc(CN(Cc2ccccc2)Cc2ccc(F)cc2)cc1` [Compound 3e, methyl 4-((benzyl(4-fluorobenzyl)amino)methyl)benzoate], for which the “Viability (100 μM) 24 hours” value in data set [1] stood at 0.57.

With `O=C(O)c1ccc(CN(Cc2ccccc2)Cc2ccc(F)cc2)cc1` [Compound 3f, 4-((benzyl(4-fluorobenzyl)amino)methyl)benzoic acid], the “Viability (100 μM) 24 hours” value in data set [1] is listed as 0.98. In addition, the “effect on PLB phosphorylation” value in data set [2] (setting [5]) is listed as “did not appear to have an effect”. Besides, the “Effect … in cardiomyocytes” value in data set [2] is given as “+”.

In the case of `Fc1ccc(CN(Cc2ccccc2)Cc2ccc(-c3ccccc3-c3nn[nH]n3)cc2)cc1` [Compound 3g, 1-(2′-(2H-tetrazol-5-yl)-[1,1′-biphenyl]-4-yl)-N-benzyl-N-(4-fluorobenzyl)methanamine], the “Viability (100 μM) 24 hours” value in data set [1] came out at 0.80.

For `COC(=O)c1ccc(CN(Cc2ccccc2)Cc2ccc(C(=O)OC)cc2)cc1` [Compound 17, dimethyl 4,4′-((benzylazanediyl)bis(methylene))dibenzoate], the solubility in data set [3] (setting [6]), in data set [3] (setting [7]) and in data set [3] (setting [8]) was under 360 µg/mL each time.

For `O=C(O)c1ccc(CN(Cc2ccccc2)Cc2ccc(C(=O)O)cc2)cc1` [Compound 18], the solubility in data set [3] (setting [6]), in data set [3] (setting [7]) and in data set [3] (setting [8]) was under 50 µg/mL each time.

Consider `CC(C)(C)c1ccc(CN(Cc2ccccc2)Cc2ccc(C(C)(C)C)cc2)cc1` [Compound 19, N-benzyl-N-(4-(tert-butyl)benzyl)-1-(4-(tert-butyl)phenyl)methanamine], for which the solubility in data set [3] (setting [6]), in data set [3] (setting [7]) and in data set [3] (setting [8]) was under 50 µg/mL throughout.

Take `O=[N+]([O-])c1ccc(CN(Cc2ccccc2)Cc2ccc([N+](=O)[O-])cc2)cc1` [Compound 20, N-benzyl-N-(4-nitrobenzyl)-1-(4-nitrophenyl)methanamine]: the solubility in data set [3] (setting [6]), in data set [3] (setting [7]) and in data set [3] (setting [8]) was under 3000 µg/mL in each case.

Regarding `Nc1ccc(CN(Cc2ccccc2)Cc2ccc(N)cc2)cc1` [Compound 22, 4-(((4-aminobenzyl)(benzyl)amino)methyl)aniline], the solubility in data set [3] (setting [6]) was 4500 µg/mL; in data set [3] (setting [7]) it was under 50 µg/mL; in data set [3] (setting [8]) it was over 22000 µg/mL.

Take `CCN(CC)c1ccc(CN(Cc2ccccc2)Cc2ccc(N(CC)CC)cc2)cc1` [Compound 23, 4-((benzyl(4-(diethylamino)benzyl)amino)methyl)-N,N-diethylaniline]: the figures for the solubility in data set [3] (setting [6]), in data set [3] (setting [7]) and in data set [3] (setting [8]) were 15000 µg/mL, under 50 µg/mL and over 34000 µg/mL, respectively.

As to `Cc1ccc(NC(=O)Nc2ccc(CN(Cc3ccccc3)Cc3ccc(NC(=O)Nc4ccc(C)cc4)cc3)cc2)cc1` [Compound 25, 1,1′-(((benzylazanediyl)bis(methylene))bis(4,1-phenylene))bis(3-(p-tolyl)urea)], the solubility in data set [3] (setting [6]), in data set [3] (setting [7]) and in data set [3] (setting [8]) was under 50 µg/mL each time.

Regarding `O=C(Nc1ccc(F)cc1)Nc1ccc(CN(Cc2ccccc2)Cc2ccc(NC(=O)Nc3ccc(F)cc3)cc2)cc1` [Compound 26, 1,1′-(((benzylazanediyl)bis(methylene))bis(4,1-phenylene))bis(3-(4-fluorophenyl)urea)], the solubility in data set [3] (setting [6]), in data set [3] (setting [7]) and in data set [3] (setting [8]) was under 1500 µg/mL each time.

For `O=C(Nc1ccccc1)Nc1ccc(CN(Cc2ccccc2)Cc2ccc(NC(=O)Nc3ccccc3)cc2)cc1` [Compound 27, 1,1′-(((benzylazanediyl)bis(methylene))bis(4,1-phenylene))bis(3-phenylurea)], the solubility in data set [3] (setting [6]), in data set [3] (setting [7]) and in data set [3] (setting [8]) was under 500 µg/mL each time.

With `CN(C)c1ccc(CN(Cc2ccccc2)Cc2ccc(N(C)C)cc2)cc1` [Compound 29, 4-((benzyl(4-(dimethylamino)benzyl)amino)methyl)-N,N-dimethylaniline], the solubility is 6000 µg/mL in data set [3] (setting [6]), under 160 µg/mL in data set [3] (setting [7]) and 94000 µg/mL in data set [3] (setting [8]).

For `c1ccc(CN(Cc2ccccc2)Cc2ccccc2)cc1` [Tribenzylamine], the “AUC HCl salt” value in data set [4] (HCl salt dissolved in water) is reported as 406 mAu*s. The “AUC Free base” value in data set [4] (free base dissolved in water) is given as “≈0 mAu*s”. Also, the “AUC Mesylate salt” value in data set [4] (mesylate salt dissolved in water) is recorded as 1975 mAu*s.
